This passage reports EC50 and MIC results from patent US20230114728A1 (Venatorx Pharmaceuticals, Inc., priority 2019, published 2023).

By EC50 is commonly meant the concentration at which the effect is half-maximal.

Assay [1] has as its target T1, E. coli K12 PBP3 (Escherichia coli, UniProt P0AD68).
T1 construct: made in house
The experiment in a line: biochemical. Type of assay: binding. Summed up: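 Fluorescence polarization (ex 490/em 520 nm) competition of inhibitors against Bocillin-FL at 0.1 μM, read up to 60 min. Final PBP levels: E. coli PBP3 1.5 μM; A. baumannii PBP2 2.5 μM, PBP3 0.2 μM in Tris pH 8.0/NaCl/glycerol/Tween 20; N. gonorrhoeae PBP2 […] in Hepes pH 8.0/NaCl/glycerol. EC50 = concentration halving PBP-bound Bocillin-FL.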

For assay [2], the system named is N. gonorrhoeae WHO L. The assay is described as follows: Liquid broth MIC in Fastidious broth. It is filed as cell-based. The note with it: Neisseria gonorrhoeae, read-out: Minimum Inhibitory Concentration, N. gonorrhoeae WHO L. The essentials: (§1)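 Colonies were swabbed from chocolate agar after 24 h growth and standardised by optical density at 600 nm. Compounds were serially diluted twofold in Fastidious broth, and bacteria added to give 5×10^5 CFU/mL. After about 24 h at 36 °C in 5% CO2, the lowest concentration allowing under 10% growth was taken as MIC.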

Assay [3] relates to N. gonorrhoeae WHO G. The experiment in a line: Liquid broth MIC in Fastidious broth. The settings on record: Neisseria gonorrhoeae, read-out: Minimum Inhibitory Concentration, N. gonorrhoeae WHO G. It is filed as cell-based. The essentials:
as §1

The test system of assay [4] is N. gonorrhoeae WHO K. The experiment in a line: Liquid broth MIC in Fastidious broth. Type of assay: cell-based. The note with it: Neisseria gonorrhoeae, read-out: Minimum Inhibitory Concentration, N. gonorrhoeae WHO K. The essentials:
(§2)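 Mosaic PBP2 producers; colonies from 24 h chocolate agar, saline suspension, OD600. Fastidious broth, 2-fold dilutions, 5×10^5 CFU/mL. ~24 h, 36 °C, 5% CO2; visual MIC, <10% growth cutoff.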

Assay [5] deals with N. gonorrhoeae ATCC 49226. The assay is described as follows: Liquid broth MIC in Fastidious broth. It is filed as cell-based. The note with it: Neisseria gonorrhoeae, ATCC49226; N. gonorrhoeae strain ATCC 49226; Fastidious broth; read-out: Minimum Inhibitory Concentration, N. gonorrhoeae ATCC 49226. Summed up:
as §1

Assay [6] has as its system N. gonorrhoeae H041. The experiment in a line: Liquid broth MIC in Fastidious broth. It is filed as cell-based. The settings on record: Neisseria gonorrhoeae, H041, read-out: Minimum Inhibitory Concentration, N. gonorrhoeae H041. The essentials: as §2
The subject of assay [7] is N. gonorrhoeae FA1090. The experiment in a line: Liquid broth MIC in Fastidious broth. Type of assay: cell-based. The note with it: Neisseria gonorrhoeae; N. gonorrhoeae strain FA1090; Fastidious broth; read-out: Minimum Inhibitory Concentration, N. gonorrhoeae FA1090. Summed up: as §1
The mark [8] stands for this setting: N. gonorrhoeae strain WHO L, Fastidious broth.
[9] abbreviates: N. gonorrhoeae strain WHO G, Fastidious broth.

In brackets after ≈: the same amount, converted by molar mass. Where two headings read alike, the source gives them in different places. Where only a bound is given, the exact number is not on record here.

T1 sequence (P0AD68 1-577): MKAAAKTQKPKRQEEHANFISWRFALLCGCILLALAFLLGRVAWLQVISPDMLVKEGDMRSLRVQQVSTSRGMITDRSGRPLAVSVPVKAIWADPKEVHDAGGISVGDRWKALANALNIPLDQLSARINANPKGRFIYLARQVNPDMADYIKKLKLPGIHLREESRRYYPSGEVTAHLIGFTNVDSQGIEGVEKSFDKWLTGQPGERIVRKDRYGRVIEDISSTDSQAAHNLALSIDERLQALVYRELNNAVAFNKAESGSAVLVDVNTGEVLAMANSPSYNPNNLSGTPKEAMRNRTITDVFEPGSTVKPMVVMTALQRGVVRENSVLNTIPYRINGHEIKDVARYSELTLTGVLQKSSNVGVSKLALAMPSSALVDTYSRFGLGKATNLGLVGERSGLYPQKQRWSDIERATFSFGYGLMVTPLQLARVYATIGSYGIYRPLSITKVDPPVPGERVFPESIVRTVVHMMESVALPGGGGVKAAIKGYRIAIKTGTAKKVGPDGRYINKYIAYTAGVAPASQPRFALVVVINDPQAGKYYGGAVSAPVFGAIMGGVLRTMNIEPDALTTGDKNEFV

For the molecule `O=C(O)c1c(F)ccc2c1OB(O)[C@@H](NC(=O)C(NC(=O)N1CCN(CCBr)C(=O)C1=O)c1c(F)cc(O)c(O)c1F)C2` (stereo partly drawn) [Example 38, (3R)-3-(2-(4-(2-bromoethyl)-2,3-dioxopiperazine-1-carboxamido)-2-(2,6-difluoro-3,4-dihydroxyphenyl)acetamido)-7-fluoro-2-hydroxy-3,4-dihydro-2H-benzo[e][1,2]oxaborinine-8-carboxylic acid], the EC50 in assay [1] was less than 30 µM. The MIC is greater than 64 µg/mL in assay [2]; 16 to 32 µg/mL (≈ 23.8 to 47.5 µM) in assay [3]; greater than 64 µg/mL in assay [4]; 16 to 32 µg/mL (≈ 23.8 to 47.5 µM) in assay [5]; greater than 64 µg/mL in assay [6]; 4 to 8 µg/mL (≈ 5.94 to 11.9 µM) in assay [7].

As to `NCCCN1CCN(C(=O)NC(C(=O)N[C@H]2Cc3cccc(C(=O)O)c3OB2O)c2ccc(C(=O)O)cc2)C(=O)C1=O` (stereo partly drawn) [Example 39, (3R)-3-(2-(4-(3-aminopropyl)-2,3-dioxopiperazine-1-carboxamido)-2-(4-carboxyphenyl)acetamido)-2-hydroxy-3,4-dihydro-2H-benzo[e][1,2]oxaborinine-8-carboxylic acid], in assay [1], the EC50 was less than 30 µM. In addition, the MIC is 16 to 32 µg/mL (≈ 27.5 to 55 µM) in assay [2] (setting [8]); 4 to 8 µg/mL (≈ 6.88 to 13.8 µM) in assay [3] (setting [9]); greater than 64 µg/mL in assay [4]; 4 to 8 µg/mL (≈ 6.88 to 13.8 µM) in assay [5]; greater than 64 µg/mL in assay [6]; 1 to 2 µg/mL (≈ 1.72 to 3.44 µM) in assay [7].

In assay [1], `CCN1CCN(C(=O)NC(C(=O)N[C@H]2Cc3ccc(F)c(C(=O)O)c3OB2O)c2cc(F)c(O)c(O)c2Cl)C(=O)C1=O` (stereo partly drawn) [Example 42, (3R)-3-(2-(2-chloro-5-fluoro-3,4-dihydroxyphenyl)-2-(4-ethyl-2,3-dioxopiperazine-1-carboxamido)acetamido)-7-fluoro-2-hydroxy-3,4-dihydro-2H-benzo[e][1,2]oxaborinine-8-carboxylic acid] registered an EC50 of less than 30 µM. Further, the MIC was greater than 64 µg/mL in assay [2] (setting [8]); 16 to 32 µg/mL (≈ 26.2 to 52.4 µM) in assay [3] (setting [9]); 16 to 32 µg/mL (≈ 26.2 to 52.4 µM) in assay [4]; 16 to 32 µg/mL (≈ 26.2 to 52.4 µM) in assay [5]; 16 to 32 µg/mL (≈ 26.2 to 52.4 µM) in assay [6]; 4 to 8 µg/mL (≈ 6.55 to 13.1 µM) in assay [7].

On to `NS(=O)(=O)NC(C(=O)N[C@H]1Cc2ccc(F)c(C(=O)O)c2OB1O)c1ncc(O)cc1F` (stereo partly drawn) [Example 43, (3R)-7-fluoro-3-(2-(3-fluoro-5-hydroxypyridin-2-yl)-2-(sulfamoylamino)acetamido)-2-hydroxy-3,4-dihydro-2H-benzo[e][1,2]oxaborinine-8-carboxylic acid], for which the EC50 in assay [1] is greater than 500 µM. Moreover, the MIC in assay [2] (setting [8]), in assay [3] (setting [9]), in assay [4], in assay [5], in assay [6] and in assay [7] was greater than 64 µg/mL in each case.

On to `NS(=O)(=O)NC(C(=O)N[C@H]1Cc2cccc(C(=O)O)c2OB1O)c1ccc(C(=O)O)c(F)c1` (stereo partly drawn) [Example 44, (3R)-3-(2-(4-carboxy-3-fluorophenyl)-2-(sulfamoylamino)acetamido)-2-hydroxy-3,4-dihydro-2H-benzo[e][1,2]oxaborinine-8-carboxylic acid], for which, in assay [1], the EC50 is greater than 500 µM. Moreover, the MIC in assay [2] (setting [8]), in assay [3] (setting [9]), in assay [4], in assay [5], in assay [6] and in assay [7] was greater than 64 µg/mL each time.

On to `CCN1CCN(C(=O)NC(C(=O)N[C@H]2Cc3cccc(C(=O)O)c3OB2O)c2ccc(C(N)=O)c(O)c2)C(=O)C1=O` (stereo partly drawn) [Example 45, (3R)-3-(2-(4-carbamoyl-3-hydroxyphenyl)-2-(4-ethyl-2,3-dioxopiperazine-1-carboxamido)acetamido)-2-hydroxy-3,4-dihydro-2H-benzo[e][1,2]oxaborinine-8-carboxylic acid], for which the half-maximal effective concentration (EC50) in assay [1] is less than 30 µM. The MIC in assay [2] (setting [8]) is 16 to 32 µg/mL (≈ 28.2 to 56.4 µM); in assay [3] (setting [9]), 0.25 to 0.5 µg/mL (≈ 0.441 to 0.881 µM); in assay [4], 16 to 32 µg/mL (≈ 28.2 to 56.4 µM); in assay [5] it was 1 to 2 µg/mL (≈ 1.76 to 3.53 µM); in assay [6], 16 to 32 µg/mL (≈ 28.2 to 56.4 µM); in assay [7], less than 0.125 µg/mL.

Molecule `NC(=O)c1ccc(C(NC(=O)N2CCN(CCF)C(=O)C2=O)C(=O)N[C@H]2Cc3cccc(C(=O)O)c3OB2O)cc1O` (stereo partly drawn) [Example 46, (3R)-3-(2-(4-carbamoyl-3-hydroxyphenyl)-2-(4-(2-fluoroethyl)-2,3-dioxopiperazine-1-carboxamido)acetamido)-2-hydroxy-3,4-dihydro-2H-benzo[e][1,2]oxaborinine-8-carboxylic acid] returned an EC50 in assay [1] of less than 30 µM. Further, the MIC in assay [2] (setting [8]) was 16 to 32 µg/mL (≈ 27.3 to 54.7 µM); in assay [3] (setting [9]), 0.25 to 0.5 µg/mL (≈ 0.427 to 0.854 µM); in assay [4] it was 16 to 32 µg/mL (≈ 27.3 to 54.7 µM); in assay [5] it was 1 to 2 µg/mL (≈ 1.71 to 3.42 µM); in assay [6] it was 16 to 32 µg/mL (≈ 27.3 to 54.7 µM); in assay [7], less than 0.125 µg/mL.

For `NCCCN1CCN(C(=O)NC(C(=O)N[C@H]2Cc3cccc(C(=O)O)c3OB2O)c2ccc(C(N)=O)c(O)c2)C(=O)C1=O` (stereo partly drawn) [Example 47, (3R)-3-(2-(4-(3-aminopropyl)-2,3-dioxopiperazine-1-carboxamido)-2-(4-carbamoyl-3-hydroxyphenyl)acetamido)-2-hydroxy-3,4-dihydro-2H-benzo[e][1,2]oxaborinine-8-carboxylic acid], the EC50 in assay [1] lay in the range of 30 to 500 µM. The MIC in assay [2] (setting [8]) was greater than 64 µg/mL; in assay [3] (setting [9]), 4 to 8 µg/mL (≈ 6.71 to 13.4 µM); in assay [4], greater than 64 µg/mL; in assay [5], 4 to 8 µg/mL (≈ 6.71 to 13.4 µM); in assay [6], greater than 64 µg/mL; in assay [7], 0.25 to 0.5 µg/mL (≈ 0.419 to 0.838 µM).

As for `CCN1CCN(C(=O)NC(C(=O)N[C@H]2Cc3cccc(C(=O)O)c3OB2O)c2ccc(C(=O)O)c(OC)c2)C(=O)C1=O` (stereo partly drawn) [Example 48, (3R)-3-(2-(4-carboxy-3-methoxyphenyl)-2-(4-ethyl-2,3-dioxopiperazine-1-carboxamido)acetamido)-2-hydroxy-3,4-dihydro-2H-benzo[e][1,2]oxaborinine-8-carboxylic acid], in assay [1], the EC50 is less than 30 µM. Moreover, the MIC in assay [2] (setting [8]) was 16 to 32 µg/mL (≈ 27.5 to 55 µM); in assay [3] (setting [9]) it was 1 to 2 µg/mL (≈ 1.72 to 3.43 µM); in assay [4], 4 to 8 µg/mL (≈ 6.87 to 13.7 µM); in assay [5], 4 to 8 µg/mL (≈ 6.87 to 13.7 µM); in assay [6], 16 to 32 µg/mL (≈ 27.5 to 55 µM); in assay [7], 0.25 to 0.5 µg/mL (≈ 0.429 to 0.859 µM).

Take `O=C(Nc1ccccc1)NC(C(=O)N[C@H]1Cc2ccc(F)c(C(=O)O)c2OB1O)c1ncc(O)cc1F` (stereo partly drawn) [Example 49, (3R)-7-fluoro-3-(2-(3-fluoro-5-hydroxypyridin-2-yl)-2-(3-phenylureido)acetamido)-2-hydroxy-3,4-dihydro-2H-benzo[e][1,2]oxaborinine-8-carboxylic acid]: the EC50 in assay [1] was in the range of 30 to 500 µM. Moreover, the MIC in assay [2] (setting [8]) was 16 to 32 µg/mL (≈ 31.2 to 62.5 µM); in assay [3] (setting [9]) it was 16 to 32 µg/mL (≈ 31.2 to 62.5 µM); in assay [4], greater than 64 µg/mL; in assay [5], 16 to 32 µg/mL (≈ 31.2 to 62.5 µM); in assay [6] it was greater than 64 µg/mL; in assay [7], 4 to 8 µg/mL (≈ 7.81 to 15.6 µM).

With `CCN1CCN(C(=O)NC(C(=O)N[C@H]2Cc3cccc(C(=O)O)c3OB2O)c2ccc(N)c(F)c2)C(=O)C1=O` (stereo partly drawn) [Example 50, (3R)-3-(2-(4-amino-3-fluorophenyl)-2-(4-ethyl-2,3-dioxopiperazine-1-carboxamido)acetamido)-2-hydroxy-3,4-dihydro-2H-benzo[e][1,2]oxaborinine-8-carboxylic acid], the EC50 in assay [1] was less than 30 µM. The MIC is 16 to 32 µg/mL (≈ 29.6 to 59.1 µM) in assay [2] (setting [8]); 1 to 2 µg/mL (≈ 1.85 to 3.69 µM) in assay [3] (setting [9]); 16 to 32 µg/mL (≈ 29.6 to 59.1 µM) in assay [4]; 1 to 2 µg/mL (≈ 1.85 to 3.69 µM) in assay [5]; 16 to 32 µg/mL (≈ 29.6 to 59.1 µM) in assay [6]; less than 0.125 µg/mL in assay [7].
